In the NIST ThermoML archive (doi:10.1016/j.tca.2006.04.016):

Assay: xn = mol fraction of the nth substance listed
Details: 101 kPa, Liquid, Vibrating tube method, x1 = 1

O [water] + CN(C)CCCN
Details	mass density [kg/m3]
283.15 K	999.7
323.15 K	988.03
328.15 K	985.69
333.15 K	983.191
338.15 K	980.55
343.15 K	977.76
348.15 K	974.84
353.15 K	971.79
